Data as given in BindingDB's records for doi:10.1021/jm800555h (The Scripps Research Institute, 2008).

Target: Bifunctional purine biosynthesis protein ATIC (Homo sapiens, UniProt P31939)
Experiment: AICAR Tfase Inhibition Assay
Conditions: pH 7.4; 26 °C
Source text: Recombinant human AICAR Tfase was used in the inhibition assay. The reaction was monitored at 298 nm by measuring the increase in absorbance corresponding to the formation of THF. The THF was generated in the transfer reaction of the formyl group from cofactor to AICAR to produce 5-formyl-AICAR. Double reciprocal plots were used to determine the Ki values.

Chain of Bifunctional purine biosynthesis protein ATIC (P31939 whole entry): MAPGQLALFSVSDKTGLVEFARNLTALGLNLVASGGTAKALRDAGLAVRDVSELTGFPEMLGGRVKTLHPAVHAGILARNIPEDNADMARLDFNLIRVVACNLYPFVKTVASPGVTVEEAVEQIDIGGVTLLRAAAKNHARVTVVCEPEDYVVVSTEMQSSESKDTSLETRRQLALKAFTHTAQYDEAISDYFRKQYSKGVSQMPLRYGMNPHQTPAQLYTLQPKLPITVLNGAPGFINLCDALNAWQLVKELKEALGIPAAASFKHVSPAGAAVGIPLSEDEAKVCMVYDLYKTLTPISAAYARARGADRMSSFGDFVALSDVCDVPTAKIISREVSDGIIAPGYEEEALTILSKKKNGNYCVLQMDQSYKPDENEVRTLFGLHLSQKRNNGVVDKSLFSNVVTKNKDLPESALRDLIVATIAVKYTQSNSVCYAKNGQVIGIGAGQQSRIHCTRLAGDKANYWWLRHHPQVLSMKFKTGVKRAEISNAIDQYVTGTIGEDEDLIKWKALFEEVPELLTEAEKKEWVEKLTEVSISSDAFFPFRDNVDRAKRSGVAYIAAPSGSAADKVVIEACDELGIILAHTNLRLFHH

Ki [µM]	Structure (SMILES)
> 100	CO[C@@H](CCCc1c(N)nc(N)[nH]c1=O)c1ccc(C(=O)NC(CCC(=O)O)C(=O)O)cc1 (stereo partly drawn) [2-({4-[(1S)-4-(2,4-diamino-6-oxo-1,6-dihydropyrimidin-5-yl)-1-methoxybutyl]phenyl}formamido)pentanedioic acid]
> 100	CO[C@H](CCCc1c(N)nc(N)[nH]c1=O)c1ccc(C(=O)NC(CCC(=O)O)C(=O)O)cc1 (stereo partly drawn) [2-({4-[(1R)-4-(2,4-diamino-6-oxo-1,6-dihydropyrimidin-5-yl)-1-methoxybutyl]phenyl}formamido)pentanedioic acid]
> 100	Nc1nc(N)c(CCC[C@H](O)c2ccc(C(=O)NC(CCC(=O)O)C(=O)O)cc2)c(=O)[nH]1 (stereo partly drawn) [2-({4-[(1S)-4-(2,4-diamino-6-oxo-1,6-dihydropyrimidin-5-yl)-1-hydroxybutyl]phenyl}formamido)pentanedioic acid]

The remaining lines, values behind:

Structure (SMILES)	Ki [µM]
CS[C@@H](CCCc1c(N)nc(N)[nH]c1=O)c1ccc(C(=O)NC(CCC(=O)O)C(=O)O)cc1 (some centres not stated) [10S (7)]	> 100
Nc1nc(N)c(CCC[C@@H](O)c2ccc(C(=O)NC(CCC(=O)O)C(=O)O)cc2)c(=O)[nH]1 (stereo partly drawn) [2-({4-[(1R)-4-(2,4-diamino-6-oxo-1,6-dihydropyrimidin-5-yl)-1-hydroxybutyl]phenyl}formamido)pentanedioic acid]	> 100
CS[C@H](CCCc1c(N)nc(N)[nH]c1=O)c1ccc(C(=O)NC(CCC(=O)O)C(=O)O)cc1 (some centres not stated) [10R (8)]	> 100

Target: T1, Trifunctional purine biosynthetic protein adenosine-3 (Homo sapiens, UniProt P22102)
T1 sequence (P22102 whole entry): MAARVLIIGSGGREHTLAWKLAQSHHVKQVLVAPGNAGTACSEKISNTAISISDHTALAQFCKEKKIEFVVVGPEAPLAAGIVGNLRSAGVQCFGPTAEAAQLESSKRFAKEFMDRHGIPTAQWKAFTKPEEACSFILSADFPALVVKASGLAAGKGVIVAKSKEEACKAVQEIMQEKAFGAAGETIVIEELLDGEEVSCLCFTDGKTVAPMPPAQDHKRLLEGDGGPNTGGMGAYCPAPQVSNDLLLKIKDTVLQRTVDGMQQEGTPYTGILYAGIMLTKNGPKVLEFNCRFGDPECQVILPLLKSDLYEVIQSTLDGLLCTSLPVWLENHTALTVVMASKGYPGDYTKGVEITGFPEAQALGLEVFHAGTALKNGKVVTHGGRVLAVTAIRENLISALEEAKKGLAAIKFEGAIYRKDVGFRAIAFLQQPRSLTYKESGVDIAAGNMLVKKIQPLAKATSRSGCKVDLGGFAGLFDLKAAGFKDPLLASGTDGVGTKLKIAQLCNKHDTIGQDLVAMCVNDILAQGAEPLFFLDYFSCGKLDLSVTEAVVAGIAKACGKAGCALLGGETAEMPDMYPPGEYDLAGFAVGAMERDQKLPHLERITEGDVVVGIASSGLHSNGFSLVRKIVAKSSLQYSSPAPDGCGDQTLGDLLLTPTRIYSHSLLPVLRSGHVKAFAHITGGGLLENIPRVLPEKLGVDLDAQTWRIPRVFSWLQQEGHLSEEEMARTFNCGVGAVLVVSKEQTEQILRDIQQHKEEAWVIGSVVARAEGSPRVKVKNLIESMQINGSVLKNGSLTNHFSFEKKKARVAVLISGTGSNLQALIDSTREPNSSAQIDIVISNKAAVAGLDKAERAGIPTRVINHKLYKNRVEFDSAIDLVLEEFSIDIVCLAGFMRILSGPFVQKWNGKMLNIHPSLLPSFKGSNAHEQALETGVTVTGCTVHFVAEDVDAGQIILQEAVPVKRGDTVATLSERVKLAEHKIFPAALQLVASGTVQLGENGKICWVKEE
Experiment: GAR Tfase Activity Assay
Conditions: pH 7.5; 26 °C

Ki [µM]	Structure (SMILES)
1.1	Nc1nc(N)c(CCC[C@@H](O)c2ccc(C(=O)NC(CCC(=O)O)C(=O)O)cc2)c(=O)[nH]1 (stereo partly drawn) [2-({4-[(1R)-4-(2,4-diamino-6-oxo-1,6-dihydropyrimidin-5-yl)-1-hydroxybutyl]phenyl}formamido)pentanedioic acid]
